From patent US12054660B2, “Compound, composition, cured substance, optically anisotropic body, optical element, and light guide element” (FUJIFILM Corporation, priority 2021, dated 2024)

What was measured:
Format in all cases: physicochemical
[1] = Evaluation of liquid crystallinity (hot stage, polarization microscope); parameters: key: A case of having liquid crystallinity was evaluated as A; a case of having no liquid crystallinity was evaluated as B; conditions: heated on a hot stage
Source text: As a specific observation method, optical anisotropy and fluidity derived from the liquid crystal phase can be checked by carrying out an observation under a polarization microscope while heating or lowering the temperature of the compound with a hot stage or the like.
The respective compounds of Examples and Comparative Examples (the compounds A-1, A-3 to A-20, and the compounds RA-1 and RA-2) were heated on a hot stage and observed with a polarization microscope, and the phase transition temperature was measured to evaluate the presence or absence of liquid crystallinity. A case of having liquid crystallinity was evaluated as A, and a case of having no liquid crystallinity was evaluated as B. The results are shown in Table 1.

[2] = Evaluation of solubility in methyl ethyl ketone; conditions: precipitation concentration in methyl ethyl ketone at room temperature (25° C.)
Protocol: The solubility of each of the compounds of Examples and Comparative Examples (the compounds A-1, A-3 to A-20, and the compounds RA-1 and RA-2) in methyl ethyl ketone was evaluated. A solution in which the compound was ultrasonically dissolved or dissolved by heating was produced.

[3] = Evaluation of durability (moisture-heat resistance test) of optically anisotropic layer; conditions: rate of change in Re of layer (25 parts compound/75 parts L-1) after 136 hours at 100° C., 95% RH
Protocol: (§1) As shown below, the durability of the optically anisotropic layer produced using the composition containing each of the compounds A-1 and A-3 to A-20, and the compounds RA-1 and RA-2 was evaluated.
(§2) A coating composition having the following composition was prepared and applied by spin coating onto a rubbing-treated glass attached with an alignment film.
(§3) The polymerizable liquid crystal compound L-1 is a mixture obtained by mixing at a ratio of the following L-1-1/L-1-2/L-1-3=84/14/2 (in terms of mass ratio).
(§4) Re is an in-plane retardation. Rate of change in Re (%)=[100×{|(Re after test)−(Re before test)|}/(Re before test)]
(§5) Re was measured with Axoscan manufactured by Axometrics, Inc. at a wavelength of 550 nm, and the measurement temperature was set to room temperature.
The produced optically anisotropic layer was allowed to be left for 136 hours at 100° C. and a relative humidity of 95% RH, whereby a moisture-heat resistance test was carried out. The rate of change in Re before and after the durability test was evaluated, the durability in a case where the rate of change in Re was less than 10% was evaluated as A, and the durability in a case where the rate of change in Re was 10% or more was evaluated as B. The smaller the rate of change in Re, the more excellent the durability.

[4] = Measurement of Δn (refractive index anisotropy), wedge-shaped liquid crystal cell; conditions: 550 nm, 30° C. or lower limit temperature of nematic phase+0 to 10° C.; some extrapolated from 1/2 mixture with L-1-1
Protocol: The Δn of each of the compounds of Examples and Comparative Examples (the compounds A-1, A-3 to A-20, and the compounds RA-1 and RA-2), which are the compounds to be measured, was measured by a method using a wedge-shaped liquid crystal cell described on page 202 in the Liquid crystal handbook (edited by the liquid crystal handbook editorial board, published by Maruzen Co., Ltd., 2000). An was defined as a measured value at a wavelength of 550 nm at 30° C. or the lower limit temperature of the nematic phase+0° C. to 10° C. In a case of a compound which is liable to crystallize or a compound having no liquid crystallinity, evaluation was carried out using a mixture thereof with the other liquid crystal compound, and Δn was estimated from the extrapolated value of the measured value thereof. The following L-1-1 was used as the other liquid crystal compound. As the above mixture, a mixture obtained by mixing at a ratio of the compound to be measured/the L-1-1=1/2 (in terms of mass ratio) was used.
A case where Δn was 0.35 or more was evaluated as A, a case where Δn was 0.32 or more and less than 0.35 was evaluated as B, a case where Δn was 0.30 or more and less than 0.32 was evaluated as C, and a case where Δn was less than 0.30 was evaluated as D. The results are shown in Table 1.

[5] = Evaluation of light resistance of optically anisotropic layer; conditions: rate of change in Re of layer (25 parts compound/75 parts L-1) after xenon irradiation 50 hours, 63° C., 50% RH, oxygen-blocking
Protocol: as §1, §2, §3
The produced optically anisotropic layers for light resistance/durability tests were irradiated with light using a Super Xenon Weather Meter SX75 manufactured by Suga Test Instruments Co., Ltd. Using KU-1000100 manufactured by King Seisakusho Co., Ltd. as an ultraviolet ray cut filter, irradiation with 5 million 1× of light was carried out for 50 hours under the oxygen-blocking conditions to carry out a light resistance test. The temperature of the specimen to be tested (the temperature inside the test device) was set to 63° C. The relative humidity in the test device was 50% RH.
The Re of the optically anisotropic layer before and after the light resistance test was measured, the light resistance in a case where the rate of change in Re described below was less than 10% was evaluated as A, and the light resistance in a case where the rate of change in Re was 10% or more was evaluated as B. The smaller the rate of change in Re, the more excellent the light resistance.
as §4, §5

| Liquid crystallinity [1] | Compound | Solubility [2] | Durability [3] | Δn [4] | Light resistance [5] |
| --- | --- | --- | --- | --- | --- |
| B | CC(=O)OCCSc1ccc(C#Cc2ccc(CSc3ccc(C#Cc4ccc(CCOC(C)=O)cc4)cc3)cc2C)cc1 [Compound A-1] | A (the solubility in a case where the precipitation concentration was 10% by mass or more was evaluated as A) | B (the durability in a case where the rate of change in Re was 10% or more was evaluated as B) | A (A case where Δn was 0.35 or more was evaluated as A) | A (the light resistance in a case where the rate of change in Re described below was less than 10% was evaluated as A) |
| A | C=CC(=O)OCCSc1ccc(C#Cc2ccc(COc3ccc(OCc4ccc(C#Cc5ccc(SCCOC(=O)C=C)cc5)cc4)c(C(=O)OC)c3)cc2)cc1 [Compound A-14] | B (the solubility in a case where the precipitation concentration was less than 10% by mass was evaluated as B) | A (the durability in a case where the rate of change in Re was less than 10% was evaluated as A) | A (A case where Δn was 0.35 or more was evaluated as A) | A (the light resistance in a case where the rate of change in Re described below was less than 10% was evaluated as A) |
| A | C=CC(=O)OCCSc1ccc(C#Cc2ccc(COc3ccc(C#Cc4ccc(SCCOC(=O)C=C)cc4)cc3C)cc2)cc1 [Compound A-6] | A (the solubility in a case where the precipitation concentration was 10% by mass or more was evaluated as A) | A (the durability in a case where the rate of change in Re was less than 10% was evaluated as A) | A (A case where Δn was 0.35 or more was evaluated as A) | A (the light resistance in a case where the rate of change in Re described below was less than 10% was evaluated as A) |
| B | C=CC(=O)OCCSc1ccc(C#Cc2ccc(SCc3ccc(C#Cc4ccc(SCCOC(=O)C=C)cc4)c(OC)c3)cc2)cc1 [Compound A-5] | A (the solubility in a case where the precipitation concentration was 10% by mass or more was evaluated as A) | A (the durability in a case where the rate of change in Re was less than 10% was evaluated as A) | A (A case where Δn was 0.35 or more was evaluated as A) | A (the light resistance in a case where the rate of change in Re described below was less than 10% was evaluated as A) |
| A | C=CC(=O)OCCCCSc1ccc(C#Cc2ccc(NC(=O)c3ccc(SCCCCOC(=O)C=C)cc3)c(C(F)(F)F)c2)cc1 [RA-2, reference compound] | B (the solubility in a case where the precipitation concentration was less than 10% by mass was evaluated as B) | A (the durability in a case where the rate of change in Re was less than 10% was evaluated as A) | C (a case where Δn was 0.30 or more and less than 0.32 was evaluated as C) | B (the light resistance in a case where the rate of change in Re was 10% or more was evaluated as B) |
| A | C=CC(=O)OCCSc1ccc(C#Cc2ccc(OCCOc3ccc(C#Cc4ccc(SCCOC(=O)C=C)cc4)cc3C(=O)OC)c(C(=O)OC)c2)cc1 [Compound A-18] | A (the solubility in a case where the precipitation concentration was 10% by mass or more was evaluated as A) | A (the durability in a case where the rate of change in Re was less than 10% was evaluated as A) | A (A case where Δn was 0.35 or more was evaluated as A) | A (the light resistance in a case where the rate of change in Re described below was less than 10% was evaluated as A) |
| A | C=CC(=O)OCCSc1ccc(C#Cc2ccc(OCc3ccc(C#Cc4ccc(SCCOC(=O)C=C)cc4)s3)c(C(=O)OC)c2)cc1 [Compound A-16] | A (the solubility in a case where the precipitation concentration was 10% by mass or more was evaluated as A) | A (the durability in a case where the rate of change in Re was less than 10% was evaluated as A) | A (A case where Δn was 0.35 or more was evaluated as A) | B (the light resistance in a case where the rate of change in Re was 10% or more was evaluated as B) |
| B | C=CC(=O)OCCOc1ccc(C#Cc2ccc(SCCSc3ccc(C#Cc4ccc(OCCOC(=O)C=C)c(C)c4)cc3)cc2)cc1C [Compound A-17] | A (the solubility in a case where the precipitation concentration was 10% by mass or more was evaluated as A) | A (the durability in a case where the rate of change in Re was less than 10% was evaluated as A) | A (A case where Δn was 0.35 or more was evaluated as A) | A (the light resistance in a case where the rate of change in Re described below was less than 10% was evaluated as A) |
| A | C=CC(=O)OCCSc1ccc(C#Cc2ccc(C(=O)Oc3ccc(C#Cc4ccc(SCCOC(=O)C=C)cc4)cc3C(=O)OC)cc2)cc1 [Compound A-4] | A (the solubility in a case where the precipitation concentration was 10% by mass or more was evaluated as A) | A (the durability in a case where the rate of change in Re was less than 10% was evaluated as A) | A (A case where Δn was 0.35 or more was evaluated as A) | B (the light resistance in a case where the rate of change in Re was 10% or more was evaluated as B) |
| A | C=CC(=O)OCCSc1ccc(C#Cc2ccc(COc3ccc(C#Cc4ccc(SCCOC(=O)C=C)cc4)cc3C(=O)OC)cc2)cc1 [Compound A-3] | A (the solubility in a case where the precipitation concentration was 10% by mass or more was evaluated as A) | A (the durability in a case where the rate of change in Re was less than 10% was evaluated as A) | A (A case where Δn was 0.35 or more was evaluated as A) | A (the light resistance in a case where the rate of change in Re described below was less than 10% was evaluated as A) |
| A | CC(=O)OCCSc1ccc(C#Cc2ccc(OCc3ccc(C#Cc4ccc(COc5ccc(C#Cc6ccc(SCCOC(C)=O)cc6)cc5C)cc4)cc3)c(C)c2)cc1 [Compound A-15] | B (the solubility in a case where the precipitation concentration was less than 10% by mass was evaluated as B) | B (the durability in a case where the rate of change in Re was 10% or more was evaluated as B) | A (A case where Δn was 0.35 or more was evaluated as A) | A (the light resistance in a case where the rate of change in Re described below was less than 10% was evaluated as A) |
